According to PubChem BioAssay (NCI):
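Dose response: 5 concentrations. Exposure: 48 h. Format: 96-well plates. Endpoint: linear interpolation; highest concentration if not reached. GI50 = concentration required for 50% inhibition of growth. At the TGI there is no net growth.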

Assays:
Assay in all cases: inhibition of tumour cell growth, NCI panel, 48 h
HCT-116 colon = test system: HCT-116 colon
MDA-MB-435 = test system: MDA-MB-435
OVCAR-5 ovarian = test system: OVCAR-5 ovarian
SNB-75 CNS = test system: SNB-75 CNS
SK-MEL-5 melanoma = test system: SK-MEL-5 melanoma
NCI-H460 lung = test system: NCI-H460 lung
A498 renal = test system: A498 renal
NCI-H522 lung = test system: NCI-H522 lung
K-562 leukemia = test system: K-562 leukemia
HT29 colon = test system: HT29 colon
MCF7 breast = test system: MCF7 breast
COLO 205 colon = test system: COLO 205 colon
SK-MEL-28 melanoma = test system: SK-MEL-28 melanoma
U251 CNS = test system: U251 CNS
HS 578T breast = test system: HS 578T breast
KM12 colon = test system: KM12 colon
CCRF-CEM leukemia = test system: CCRF-CEM leukemia
RPMI-8226 leukemia = test system: RPMI-8226 leukemia
OVCAR-8 ovarian = test system: OVCAR-8 ovarian
NCI-H226 lung = test system: NCI-H226 lung
UACC-257 melanoma = test system: UACC-257 melanoma
NCI/ADR-RES ovarian = test system: NCI/ADR-RES ovarian
HCT-15 colon = test system: HCT-15 colon
DU-145 prostate = test system: DU-145 prostate
TK-10 renal = test system: TK-10 renal
HL-60(TB) leukemia = test system: HL-60(TB) leukemia
CAKI-1 renal = test system: CAKI-1 renal
SW-620 colon = test system: SW-620 colon
IGROV1 ovarian = test system: IGROV1 ovarian
ACHN renal = test system: ACHN renal
SK-MEL-2 melanoma = test system: SK-MEL-2 melanoma
SR leukemia = test system: SR leukemia
LOX IMVI melanoma = test system: LOX IMVI melanoma
HOP-92 NSCLC = test system: HOP-92 NSCLC
SNB-19 CNS = test system: SNB-19 CNS
NCI-H23 lung = test system: NCI-H23 lung
HOP-62 NSCLC = test system: HOP-62 NSCLC
OVCAR-3 ovarian = test system: OVCAR-3 ovarian
OVCAR-4 ovarian = test system: OVCAR-4 ovarian
MDA-MB-231 breast = test system: MDA-MB-231 breast
SF-539 CNS = test system: SF-539 CNS
HCC-2998 colon = test system: HCC-2998 colon
PC-3 prostate = test system: PC-3 prostate
T-47D breast = test system: T-47D breast
SN12C renal = test system: SN12C renal
UACC-62 melanoma = test system: UACC-62 melanoma
RXF 393 renal = test system: RXF 393 renal
SF-268 CNS = test system: SF-268 CNS
786-0 renal = test system: 786-0 renal
UO-31 renal = test system: UO-31 renal
SK-OV-3 ovarian = test system: SK-OV-3 ovarian
BT-549 breast = test system: BT-549 breast
A549 NSCLC = test system: A549 NSCLC
SF-295 CNS = test system: SF-295 CNS
MOLT-4 leukemia = test system: MOLT-4 leukemia
MALME-3M melanoma = test system: MALME-3M melanoma

**Q.** Which GI50 (HCT-116 colon) does the source give for O=C(Nc1ccccc1O)c1ccc(Oc2cccc(C(=O)Nc3ccccc3O)c2)cc1 here?
**A.** 2.84 µM

**Q.** And the TGI (HCT-116 colon)?
**A.** 10.4 µM

**Q.** And the GI50 (MDA-MB-435)?
**A.** 0.294 µM

**Q.** And the TGI (MDA-MB-435)?
**A.** 10.2 µM

**Q.** What about the GI50 (OVCAR-5 ovarian) of the same molecule?
**A.** 12.9 µM

**Q.** What about the TGI (OVCAR-5 ovarian) of the same molecule?
**A.** 35 µM

**Q.** And the GI50 (SNB-75 CNS)?
**A.** 1.67 µM

**Q.** And the TGI (SNB-75 CNS)?
**A.** 7.73 µM

**Q.** What about the GI50 (SK-MEL-5 melanoma) of the same molecule?
**A.** 1.13 µM

**Q.** What about the TGI (SK-MEL-5 melanoma) of the same molecule?
**A.** 2.85 µM

**Q.** And the GI50 (NCI-H460 lung)?
**A.** 1.21 µM

**Q.** And the TGI (NCI-H460 lung)?
**A.** 11 µM

**Q.** What about the GI50 (A498 renal) of the same molecule?
**A.** 0.0225 µM

**Q.** And the TGI (A498 renal)?
**A.** 5.06 µM

**Q.** And the GI50 (NCI-H522 lung)?
**A.** 1.07 µM

**Q.** And the TGI (NCI-H522 lung)?
**A.** 4.73 µM

**Q.** What about the GI50 (K-562 leukemia) of the same molecule?
**A.** 0.819 µM

**Q.** And the TGI (K-562 leukemia)?
**A.** > 100 µM

**Q.** And the GI50 (HT29 colon)?
**A.** 4.93 µM

**Q.** And the TGI (HT29 colon)?
**A.** 16.9 µM

**Q.** What about the GI50 (MCF7 breast) of the same molecule?
**A.** 2.57 µM

**Q.** What about the TGI (MCF7 breast) of the same molecule?
**A.** 11.5 µM

**Q.** And the GI50 (COLO 205 colon)?
**A.** 15.7 µM

**Q.** What about the TGI (COLO 205 colon) of the same molecule?
**A.** 29.9 µM

**Q.** What about the GI50 (SK-MEL-28 melanoma) of the same molecule?
**A.** 1.84 µM

**Q.** And the TGI (SK-MEL-28 melanoma)?
**A.** 12.2 µM

**Q.** And the GI50 (U251 CNS)?
**A.** 2.13 µM

**Q.** What about the TGI (U251 CNS) of the same molecule?
**A.** 8.16 µM

**Q.** What about the GI50 (HS 578T breast) of the same molecule?
**A.** 2.05 µM

**Q.** What about the TGI (HS 578T breast) of the same molecule?
**A.** 12.2 µM

**Q.** And the GI50 (KM12 colon)?
**A.** 3.17 µM

**Q.** And the TGI (KM12 colon)?
**A.** 11.9 µM

**Q.** What about the GI50 (CCRF-CEM leukemia) of the same molecule?
**A.** 0.409 µM

**Q.** What about the TGI (CCRF-CEM leukemia) of the same molecule?
**A.** 9.15 µM

**Q.** What about the GI50 (RPMI-8226 leukemia) of the same molecule?
**A.** 2.84 µM

**Q.** And the TGI (RPMI-8226 leukemia)?
**A.** 8.78 µM

**Q.** And the GI50 (OVCAR-8 ovarian)?
**A.** 2.03 µM

**Q.** And the TGI (OVCAR-8 ovarian)?
**A.** 11.2 µM

**Q.** And the GI50 (NCI-H226 lung)?
**A.** 2.06 µM

**Q.** And the TGI (NCI-H226 lung)?
**A.** 10.8 µM

**Q.** And the GI50 (UACC-257 melanoma)?
**A.** 1.69 µM

**Q.** What about the TGI (UACC-257 melanoma) of the same molecule?
**A.** 8.21 µM

**Q.** What about the GI50 (NCI/ADR-RES ovarian) of the same molecule?
**A.** 1.5 µM

**Q.** And the TGI (NCI/ADR-RES ovarian)?
**A.** 6.7 µM

**Q.** And the GI50 (HCT-15 colon)?
**A.** 2.52 µM

**Q.** And the TGI (HCT-15 colon)?
**A.** 12.3 µM

**Q.** What about the GI50 (DU-145 prostate) of the same molecule?
**A.** 3.37 µM

**Q.** What about the TGI (DU-145 prostate) of the same molecule?
**A.** 11.9 µM

**Q.** What about the GI50 (TK-10 renal) of the same molecule?
**A.** 7.64 µM

**Q.** And the TGI (TK-10 renal)?
**A.** 30.2 µM

**Q.** And the GI50 (HL-60(TB) leukemia)?
**A.** 1.37 µM

**Q.** What about the TGI (HL-60(TB) leukemia) of the same molecule?
**A.** 10.4 µM

**Q.** And the GI50 (CAKI-1 renal)?
**A.** 1.91 µM

**Q.** What about the TGI (CAKI-1 renal) of the same molecule?
**A.** 8.86 µM

**Q.** And the GI50 (SW-620 colon)?
**A.** 3.42 µM

**Q.** What about the TGI (SW-620 colon) of the same molecule?
**A.** 12.7 µM

**Q.** And the GI50 (IGROV1 ovarian)?
**A.** 5.25 µM

**Q.** And the TGI (IGROV1 ovarian)?
**A.** 27.3 µM

**Q.** What about the GI50 (ACHN renal) of the same molecule?
**A.** 2.64 µM

**Q.** What about the TGI (ACHN renal) of the same molecule?
**A.** 11.9 µM

**Q.** What about the GI50 (SK-MEL-2 melanoma) of the same molecule?
**A.** 1.73 µM

**Q.** And the TGI (SK-MEL-2 melanoma)?
**A.** 5.87 µM

**Q.** And the GI50 (SR leukemia)?
**A.** 0.56 µM

**Q.** And the TGI (SR leukemia)?
**A.** 11.4 µM

**Q.** What about the GI50 (LOX IMVI melanoma) of the same molecule?
**A.** 2.24 µM

**Q.** And the TGI (LOX IMVI melanoma)?
**A.** 12.2 µM

**Q.** What about the GI50 (HOP-92 NSCLC) of the same molecule?
**A.** 1.57 µM

**Q.** What about the TGI (HOP-92 NSCLC) of the same molecule?
**A.** 6.07 µM

**Q.** What about the GI50 (SNB-19 CNS) of the same molecule?
**A.** 2.08 µM

**Q.** What about the TGI (SNB-19 CNS) of the same molecule?
**A.** 14.4 µM

**Q.** What about the GI50 (NCI-H23 lung) of the same molecule?
**A.** 2.99 µM

**Q.** And the TGI (NCI-H23 lung)?
**A.** 11.3 µM

**Q.** And the GI50 (HOP-62 NSCLC)?
**A.** 2.24 µM

**Q.** And the TGI (HOP-62 NSCLC)?
**A.** 12.5 µM

**Q.** What about the GI50 (OVCAR-3 ovarian) of the same molecule?
**A.** 3.28 µM

**Q.** And the TGI (OVCAR-3 ovarian)?
**A.** 9.86 µM

**Q.** What about the GI50 (OVCAR-4 ovarian) of the same molecule?
**A.** 2.42 µM

**Q.** What about the TGI (OVCAR-4 ovarian) of the same molecule?
**A.** 9.03 µM

**Q.** And the GI50 (MDA-MB-231 breast)?
**A.** 2.22 µM

**Q.** And the TGI (MDA-MB-231 breast)?
**A.** 11.8 µM

**Q.** What about the GI50 (SF-539 CNS) of the same molecule?
**A.** 1.61 µM

**Q.** What about the TGI (SF-539 CNS) of the same molecule?
**A.** 6.3 µM

**Q.** And the GI50 (HCC-2998 colon)?
**A.** 3.62 µM

**Q.** What about the TGI (HCC-2998 colon) of the same molecule?
**A.** 11.9 µM

**Q.** What about the GI50 (PC-3 prostate) of the same molecule?
**A.** 1.84 µM

**Q.** And the TGI (PC-3 prostate)?
**A.** 10.4 µM

**Q.** And the GI50 (T-47D breast)?
**A.** 3.13 µM

**Q.** What about the TGI (T-47D breast) of the same molecule?
**A.** 10.1 µM

**Q.** And the GI50 (SN12C renal)?
**A.** 2.84 µM

**Q.** And the TGI (SN12C renal)?
**A.** 17.9 µM

**Q.** And the GI50 (UACC-62 melanoma)?
**A.** 1.22 µM

**Q.** What about the TGI (UACC-62 melanoma) of the same molecule?
**A.** 5.1 µM

**Q.** What about the GI50 (RXF 393 renal) of the same molecule?
**A.** 1.81 µM

**Q.** What about the TGI (RXF 393 renal) of the same molecule?
**A.** 6.42 µM

**Q.** What about the GI50 (SF-268 CNS) of the same molecule?
**A.** 2.91 µM

**Q.** And the TGI (SF-268 CNS)?
**A.** 15 µM

**Q.** And the GI50 (786-0 renal)?
**A.** 2.84 µM

**Q.** What about the TGI (786-0 renal) of the same molecule?
**A.** 12.2 µM

**Q.** And the GI50 (UO-31 renal)?
**A.** 1.36 µM

**Q.** What about the TGI (UO-31 renal) of the same molecule?
**A.** 6.39 µM

**Q.** And the GI50 (SK-OV-3 ovarian)?
**A.** 4.42 µM

**Q.** And the TGI (SK-OV-3 ovarian)?
**A.** 17.2 µM

**Q.** And the GI50 (BT-549 breast)?
**A.** 2.53 µM

**Q.** And the TGI (BT-549 breast)?
**A.** 27 µM

**Q.** And the GI50 (A549 NSCLC)?
**A.** 2.91 µM

**Q.** What about the TGI (A549 NSCLC) of the same molecule?
**A.** 16.6 µM

**Q.** What about the GI50 (SF-295 CNS) of the same molecule?
**A.** 2.88 µM

**Q.** What about the TGI (SF-295 CNS) of the same molecule?
**A.** 9.85 µM

**Q.** What about the GI50 (MOLT-4 leukemia) of the same molecule?
**A.** 0.767 µM

**Q.** What about the TGI (MOLT-4 leukemia) of the same molecule?
**A.** 6.85 µM

**Q.** And the GI50 (MALME-3M melanoma)?
**A.** 1.48 µM

**Q.** And the TGI (MALME-3M melanoma)?
**A.** 14 µM
